Results taken from patent publication US20040224884A1, “Methods of screening for apoptosis-controlling agents for bone anabolic therapies and uses thereof” (priority 1998, published 2004).

Columns and labels:
[1] = test system: osteoblastic cells derived from murine calvaria; assay: Etoposide-induced apoptosis of osteoblastic cells, trypan blue uptake; type: cell-based; settings: for Suppression by 10^−8 M Flutamide: suppression of the anti-apoptotic effect by androgen receptor antagonist; for Lowest Effective Concentration: inhibition of etoposide-induced osteoblast apoptosis, 1 hour pretreatment; for anti-apoptotic effect on osteoblastic cells after pretreatment with ICI182,780: test agent 10^−8 M, ICI182,780 10^−7 M, 1 h pretreatment
Procedure: Osteoblastic cells derived from murine calvaria were pretreated with the sterols for 1 hour before the addition of the pro-apoptotic agent, etoposide. Apoptosis was determined after 6 hours by trypan blue uptake (Jilka et al, J. Bone and Min. Res. 13:793:802, 1998). * indicates p<0.05 versus etoposide alone, by analysis of variance (ANOVA) (Student-Newman-Keuls method).
Osteoblastic cells derived from murine calvaria were pretreated for 1 hour with the pure receptor antagonist ICI182,780 (10^−7 M) before the addition of the test agents (10^−8 M). Apoptosis was induced and quantified as described in FIG. 3. * indicates p<0.05 versus etoposide alone, by ANOVA (Student-Newman-Keuls method).
In this experiment, osteoblastic cells were derived from murine calvaria and were pretreated with the sterols for 1 hour before the addition of the pro-apoptotic agent, etoposide.
In these experiments, cells were pretreated with the indicated concentrations of the various compounds for 1 hour, in the absence or presence of the androgen receptor antagonist flutamide, before the addition of the proapoptotic agent etoposide. Apoptosis was determined after 6 hours by trypan blue uptake as described in FIG. 3.

MLO-Y4 osteocytic cells [2] = assay: Etoposide-induced apoptosis of MLO-Y4 osteocytic cells, trypan blue uptake; type: cell-based, murine; settings: for antiapoptotic effect on osteocytes after pretreatment with ICI182,780: ICI182,780 10^−7 M, 1 h pretreatment; for inhibition of etoposide-induced apoptosis of osteocytic cell line: MLO-Y4, pretreated 1 h before etoposide, apoptosis after 6 h
Procedure: Cells were pretreated with the indicated concentrations of the compounds for 1 hour before the addition of the pro-apoptotic agent etoposide. Apoptosis was determined after 6 hour by trypan blue uptake as described in FIG. 3. * indicates p<0.05 versus etoposide alone, by ANOVA (Student-Newman-Keuls method).
MLO-Y4 cells were pretreated for 1 hour with the pure receptor antagonist ICI182,780 (10^−7 M) before the addition of the test agents (10^−8 M). Apoptosis was induced and quantified as described in FIG. 3. * indicates p<0.05 versus etoposide alone, by ANOVA (Student-Newman-Keuls method).
In this experiment, MLO-Y4 cells were pretreated with the indicated concentrations of the various compounds for 1 h before the addition of the pro-apoptotic agent, etoposide. Apoptosis was determined after 6 h by trypan blue uptake as described in FIG. 3.

MLO-Y4 osteocytic cells [3] = assay: Dexamethasone-induced apoptosis of MLO-Y4 cells with PD98059; type: cell-based, murine; settings: 10^−8 M; PD98059 1 hour pretreatment; dexamethasone 6 hours
Procedure: Apoptosis was induced by incubation with the pro-apoptotic agent dexamethasone for 6 hour and quantified as described in FIG. 3. * indicates p<0.05 versus the corresponding control group without dexamethasone, by ANOVA (Student-Newman-Keuls method).
That indeed the anti-apoptotic effect of all the compounds tested herein was mediated via activation of ERKs was established by the results of the experiments shown in FIG. 10. […] Apoptosis was induced by incubation with the pro-apoptotic agent dexamethasone for 6 hours and quantified as described in FIG. 3.

[4] = test system: extracellular signal regulated kinases (ERKs) 1 and 2; assay: Western blot of phosphorylated ERK1/2 in MLO-Y4 cells; type: cell-based, murine; settings: for activation (phosphorylation) of ERKs: 10^−8 M, 5, 15 or 30 minutes; for ability to activate ERKs in the presence of PD98059: 10^−8 M, 5 minutes, 50 μM PD98059
Procedure: (§1) MLO-Y4 osteocytic cells were incubated for 25 minutes in serum -free medium. […] Cell lysates were prepared and proteins were separated by electrophoresis in polyacrylamide gels and transferred to PVDF membranes. Western blotting was performed using a specific antibody recognizing phosphorylated ERKs 1 and 2, followed by reblotting with an antibody recognizing total ERKs. Blots were developed by enhanced chemiluminescence.
MLO-Y4 cells were incubated for 25 minutes in serum-free medium in the presence or absence of 50 μM PD98059. […] Cell lysates were prepared and proteins were separated by electrophoresis in polyacrylamide gels and transferred to PVDF membranes. Western blotting was performed using a specific antibody recognizing phosphorylated ERKs 1 and 2, followed by reblotting with an antibody recognizing total ERKs. Blots were developed by enhanced chemiluminescence.
as §1, with “In this experiment, MLO-Y4” for “MLO-Y4”, “serum-free” for “serum -free”, “extracellular signal regulated kinases” for “ERKs”, “extracellular signal regulated kinases.” for “ERKs.”, “chemiluminescence. […] This effect is too rapid to be accounted for by the classical mechanism of estrogen action.” for “chemiluminescence.”
In this experiment, MLO-Y4 osteocytic cells were incubated for 25 minutes in serum-free medium in the presence or absence of 50 μM PD98059. […] Cell lysates were prepared and proteins were separated by electrophoresis in polyacrylamide gels and transferred to PVDF membranes. Western blotting was performed using a specific antibody recognizing phosphorylated extracellular signal regulated kinases 1 and 2, followed by reblotting with an antibody recognizing total extracellular signal regulated kinases. Blots were developed by enhanced chemiluminescence.

[5] = biological target: T1, murine estrogen receptor-beta (mERβ) (Mus musculus, UniProt O08537); assay: Etoposide-induced apoptosis in HeLa cells stably transfected with mERβ; type: cell-based, human; settings: 10^−8 M, 1 h; etoposide 5×10^−5 M, 6 hour
T1 construct: expressed in transfected cells
T1 sequence (O08537 whole entry): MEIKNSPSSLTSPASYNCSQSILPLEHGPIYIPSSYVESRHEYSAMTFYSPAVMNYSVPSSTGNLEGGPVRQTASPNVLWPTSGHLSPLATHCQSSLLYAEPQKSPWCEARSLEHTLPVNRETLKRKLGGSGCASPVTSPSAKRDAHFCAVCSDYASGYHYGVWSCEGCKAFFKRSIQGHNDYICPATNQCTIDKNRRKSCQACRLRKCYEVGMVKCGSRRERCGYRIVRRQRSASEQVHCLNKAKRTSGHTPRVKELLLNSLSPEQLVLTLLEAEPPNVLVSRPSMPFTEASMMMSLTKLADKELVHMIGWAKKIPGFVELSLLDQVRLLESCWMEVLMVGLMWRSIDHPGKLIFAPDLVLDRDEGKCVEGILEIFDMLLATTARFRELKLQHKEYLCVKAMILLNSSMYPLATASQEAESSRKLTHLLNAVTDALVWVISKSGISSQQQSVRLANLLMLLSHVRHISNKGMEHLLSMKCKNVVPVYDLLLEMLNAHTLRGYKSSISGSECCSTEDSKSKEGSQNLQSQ
From the text: (§2) CMV promoter alone and CMV promoter-driven cDNA for mERα or mErβ were stably transfected into HeLa cells. […] Cells were trypsinized, pelleted and trypan blue positive cells enumerated.
(§3) In this experiment, instead of calvaria cells, human HeLa cells which contain undetectable, if any, estrogen receptor were used. HeLa cells were stably transfected with either a CMV promoter-driven cDNA for the murine estrogen receptor-alpha (mERα) or a CMV promoter-driven cDNA for the murine estrogen receptor-beta (mERβ). […] Cells were trypsinized, pelleted and trypan blue positive cells were enumerated.

wild type HeLa cells = assay: Etoposide-induced apoptosis in wild type HeLa cells; type: cell-based, human; settings: 10^−8 M, 1 h; etoposide 5×10^−5 M, 6 hour
From the text: as §2, §3

osteoclasts = settings: increased from approximately 0.5%; cited from earlier work
[6] = rats, intravenously; cited from earlier work
[7] = after one year of treatment; cited from earlier work
[8] = for at least four years; cited from earlier work
osteoblasts = settings: intermittent administration in mice; from 1.7-2.2%; cited from earlier work

Molecule: C[C@]12CCC(=O)C=C1CC[C@@H]1[C@@H]2CC[C@]2(C)C(=O)CC[C@@H]12 [4-androstene-3,17-dione]
- Suppression by 10^−8 M Flutamide [1]: yes

Molecule: C[C@]12CC[C@H]3[C@@H](CC=C4C[C@@H](O)CC[C@@]43C)[C@@H]1CC[C@@H]2O [5-androstene-3β-17_-diol]
- Lowest Effective Concentration [1]: 10^−8 M
- Suppression by 10^−8 M Flutamide [1]: yes

Molecule: C[C@]12CCC(=O)C[C@@H]1CC[C@@H]1[C@@H]2CC[C@]2(C)[C@@H](O)CC[C@@H]12 [5-α-dihydrotestosterone]
- Lowest Effective Concentration [1]: 10^−9 M
- Suppression by 10^−8 M Flutamide [1]: yes

Molecule: C[C@]12CCC(=O)C[C@@H]1CC[C@@H]1[C@@H]2CC[C@]2(C)[C@@H](O)CC[C@@H]12 [5-β-dihydrotestosterone]
- Lowest Effective Concentration [1]: 10^−10 M
- Suppression by 10^−8 M Flutamide [1]: yes

Molecule: C[C@]12CC[C@@H]3c4ccc(O)cc4CC[C@H]3[C@@H]1CC[C@H]2O [17α-estradiol]
- antiapoptotic effect on osteocytes after pretreatment with ICI182,780 (MLO-Y4 osteocytic cells [2]): abrogated
- inhibition of etoposide-induced apoptosis of osteocytic cell line (MLO-Y4 osteocytic cells [2]): dose-dependently inhibited
- anti-apoptotic effect after pretreatment with PD98059 (MLO-Y4 osteocytic cells [3]): prevented the anti-apoptotic effect
- activation (phosphorylation) of ERKs [4]: activated
- ability to activate ERKs in the presence of PD98059 [4]: abrogated
- anti-apoptotic effect on osteoblastic cells after pretreatment with ICI182,780 [1]: abrogated
- inhibition of etoposide-induced apoptosis in HeLa cells transfected with estrogen receptor β [5]: potently inhibited
- effect on etoposide-induced apoptosis of wild type HeLa cells (wild type HeLa cells): none of the three compounds had any effect

Molecule: C[C@]12CC[C@@H]3c4ccc(O)cc4CC[C@H]3[C@@H]1CC[C@@H]2O [17β-estradiol]
- antiapoptotic effect on osteocytes after pretreatment with ICI182,780 (MLO-Y4 osteocytic cells [2]): abrogated
- inhibition of etoposide-induced apoptosis of osteocytic cell line (MLO-Y4 osteocytic cells [2]): dose-dependently inhibited
- anti-apoptotic effect after pretreatment with PD98059 (MLO-Y4 osteocytic cells [3]): prevented the anti-apoptotic effect
- activation (phosphorylation) of ERKs [4]: activated
- ability to activate ERKs in the presence of PD98059 [4]: abrogated
- inhibition of etoposide-induced osteoblastic cell apoptosis ([1]; pretreated 1 hour before etoposide, apoptosis after 6 hours by trypan blue uptake): prevented apoptosis
- anti-apoptotic effect on osteoblastic cells after pretreatment with ICI182,780 [1]: abrogated
- inhibition of etoposide-induced apoptosis in HeLa cells transfected with estrogen receptor β [5]: potently inhibited
- effect on etoposide-induced apoptosis of wild type HeLa cells (wild type HeLa cells): none of the three compounds had any effect
- apoptosis of osteoclasts (osteoclasts): ≤ 2.7%

Molecule: C[C@]12CC[C@H](OS(=O)(=O)O)CC1=CC[C@@H]1[C@@H]2CC[C@]2(C)C(=O)CC[C@@H]12 [Dehydroisoandrosterone-3-sulfate (DHES), Dehydroisoandrosterone-3-sulfate]
- Lowest Effective Concentration [1]: 10^−8 M
- Suppression by 10^−8 M Flutamide [1]: no*

Molecule: CC(=O)N[C@@H](CS)C(=O)O [N-acetylcysteine, acetamido-mercaptopropionic acid]
- LD50 [6]: 1140 mg/kg

Molecule: C[C@]1(O)CC[C@H]2[C@@H]3CCC4=CC(=O)CCC4=C3C=C[C@@]21C [RU1881]
- Lowest Effective Concentration [1]: 10^−8 M
- Suppression by 10^−8 M Flutamide [1]: yes

Molecule: C[C@]12CC[C@H]3[C@@H](CCC4=CC(=O)CC[C@@]43C)[C@@H]1CC[C@@H]2O [Testosterone]
- Suppression by 10^−8 M Flutamide [1]: yes

Molecule: CC(O)(P(=O)(O)O)P(=O)(O)O [etidronate]
- reduction of resorption depth in human iliac trabecular bone [7]: ~30%

Molecule: [F-].[Na+] [sodium fluoride]
- increase in vertebral bone mass [8]: 10 % a year

B1: PTH: parathyroid hormone, agent known for its role in calcium homeostasis (protein, UniProt P01270 32-115, looked up)
Parathyroid hormone: SVSEIQLMHNLGKHLNSMERVEWLRKKLQDVHNFVALGAPLAPRDAGSQRPRKKEDNVLVESHEKSLGEADKADVNVLTKAKSQ
modifications: Parathyroid hormone
notes: parathyroid hormone, agent known for its role in calcium homeostasis
- prevalence of osteoblast apoptosis (osteoblasts): 0.1-0.4%
